In patent US7781436B2 (Hoffmann-La Roche Inc., priority 2005, dated 2010) one finds Ki data, which are given here for 30 molecules.

Usually Ki stands for a measure of affinity in units of concentration, obtained from inhibition or displacement.

Where a name gives a salt, the structure may show the parent alone.

T1 sequence (P37288 whole entry): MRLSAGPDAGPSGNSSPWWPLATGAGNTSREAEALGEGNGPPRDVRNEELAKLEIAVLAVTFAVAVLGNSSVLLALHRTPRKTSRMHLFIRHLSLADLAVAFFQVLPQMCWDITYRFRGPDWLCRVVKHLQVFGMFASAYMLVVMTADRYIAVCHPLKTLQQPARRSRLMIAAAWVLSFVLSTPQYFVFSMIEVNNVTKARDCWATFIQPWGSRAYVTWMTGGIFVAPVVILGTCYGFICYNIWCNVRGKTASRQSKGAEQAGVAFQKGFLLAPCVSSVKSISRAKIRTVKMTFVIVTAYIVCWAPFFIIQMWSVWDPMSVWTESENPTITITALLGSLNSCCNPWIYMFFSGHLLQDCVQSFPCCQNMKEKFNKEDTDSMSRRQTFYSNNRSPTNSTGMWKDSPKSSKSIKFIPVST

The first experiment has as its target T1, human V1a receptor (Homo sapiens, UniProt P37288).
T1 construct: expressed in transfected cells; host or cells: HEK293 cells, transiently transfected; membranes prepared
Put plainly: human V1a receptor binding (3H-Vasopressin SPA, membranes of transfected HEK293 cells).
Details: not given
The procedure: The human V1a receptor was cloned by RT-PCR from total human liver RNA. The coding sequence was subcloned in an expression vector after sequencing to confirm the identity of the amplified sequence. […] Cell membranes were prepared from HEK293 cells transiently transfected with the expression vector and grown in 20 liter fermenters with the following protocol.
50 g of cells are resuspended in 30 ml freshly prepared ice cold Lysis buffer (50 mM HEPES, 1 mM EDTA, 10 mM MgCl2 adjusted to pH=7.4+ complete cocktail of protease inhibitor (Roche Diagnostics)). Homogenized with Polytron for 1 min and sonicated on ice for 2×2 minutes at 80% intensity (Vibracell sonicator). The preparation is centrifuged 20 min at 500 g at 4° C., the pellet is discarded and the supernatant centrifuged 1 hour at 43,000 g at 4° C. (19'000 rpm). The pellet is resuspended in 12.5 ml Lysis buffer+12.5 ml Sucrose 20% and homogenized using a Polytron for 1-2 min. The protein concentration is determined by the Bradford method, and aliquots are stored at −80° C. until use. For binding studies 60 mg Yttrium silicate SPA beads (Amersham) are mixed with an aliquot of membrane in binding buffer (50 mM Tris, 120 mM NaCl, 5 mM KCl, 2 mM CaCl2, 10 mM MgCl2) for 15 minutes with mixing. 50 ul of bead/membrane mixture is then added to each well of a 96 well plate, followed by 50 ul of 4 nM 3H-Vasopressin (American Radiolabeled Chemicals). For total binding measurement 100 ul of binding buffer are added to the respective wells, for non-specific binding 100 ul of […] cold vasopressin and for compound testing 100 ul of a serial dilution of each compound in 2% DMSO. The plate is incubated 1 h at room temperature, centrifuged 1 min at 1000 g and counted on a Packard Top-Count. Non-specific binding counts are subtracted from each well, and data is normalized to the maximum specific binding set at 100%. To calculate an IC 50 the curve is fitted using a non-linear regression model (XLfit) and the Ki is calculated using the Cheng-Prussoff equation.
Turning to `CN(C)C(=O)Cn1cc(C(=O)N2CCC(c3ccccc3OC(F)(F)F)CC2)c2ccc(Cl)cc21` [Example 95, 2-{6-Chloro-3-[4-(2-trifluoromethoxy-phenyl)-piperidine-1-carbonyl]-indol-1-yl}-N,N-dimethyl-acetamide], the Ki came out at 0.013 µM.

Take `CN(C)C(=O)Cn1cc(C(=O)N2CCC(c3ccncc3)CC2)c2ccc(Cl)cc21` [Example 122, 2-[6-Chloro-3-(3,4,5,6-tetrahydro-2H-[4,4′]bipyridinyl-1-carbonyl)-indol-1-yl]-N,N-dimethyl-acetamide]: affinity was put at a Ki of 0.01 µM.

Regarding `COc1ccccc1N1CCN(C(=O)c2cn(CC(=O)N3CCN(C)CC3)c3cc(Cl)ccc23)CC1` [Example 153, 2-{6-Chloro-3-[4-(2-methoxy-phenyl)-piperazine-1-carbonyl]-indol-1-yl}-1-(4-methyl-piperazin-1-yl)-ethanone], the Ki turned out to be 0.023 µM.

Turning to `CNC(=O)Cn1cc(C(=O)N2CCN(c3ccccc3F)CC2)c2ccc(Cl)cc21` [Example 176, 2-{6-Chloro-3-[4-(2-fluoro-phenyl)-piperazine-1-carbonyl]-indol-1-yl}-N-methyl-acetamide], the Ki came to 0.008 µM.

On to `O=C(c1cn(C[C@@H]2CCCN2)c2cc(Cl)ccc12)N1CCN(c2ccccc2F)CC1` [Example 200, (6-Chloro-1-(S)-1-pyrrolidin-2-ylmethyl-1H-indol-3-yl)-[4-(2-fluoro-phenyl)-piperazin-1-yl]-methanone], for which the affinity, expressed as Ki, was 0.021 µM.

The same experiment, now with this note: displacement of 4 nM 3H-Vasopressin, HEK293 cell membranes, Ki by Cheng-Prussoff from IC50; read-out: Ki.
As for `CN1CCN(C(=O)Cn2cc(C(=O)N3CCC(c4ccccc4OC(F)(F)F)CC3)c3ccc(Cl)cc32)CC1` [Example 88, 2-{6-Chloro-3-[4-(2-trifluoromethoxy-phenyl)-piperidine-1-carbonyl]-indol-1-yl}-1-(4-methyl-piperazin-1-yl)-ethanone], the Ki was 0.007 µM.

On to `CNC(=O)Cn1cc(C(=O)N2CCC(c3ccccc3OC(F)(F)F)CC2)c2ccc(Cl)cc21` [Example 90, 2-{6-Chloro-3-[4-(2-trifluoromethoxy-phenyl)-piperidine-1-carbonyl]-indol-1-yl}-N-methyl-acetamide], for which the Ki came to 0.008 µM.

With `CNC(=O)Cn1cc(C(=O)N2CCC(c3ccccc3C(F)(F)F)CC2)c2ccc(Cl)cc21` [Example 96, 2-{6-Chloro-3-[4-(2-trifluoromethyl-phenyl)-piperidine-1-carbonyl]-indol-1-yl}-N-methyl-acetamide], the Ki was found to be 0.011 µM.

In the case of `CN1CCN(C(=O)Cn2cc(C(=O)N3CCC(c4ccccc4C(F)(F)F)CC3)c3ccc(Cl)cc32)CC1` [Example 97, 2-{6-Chloro-3-[4-(2-trifluoromethyl-phenyl)-piperidine-1-carbonyl]-indol-1-yl}-1-(4-methyl-piperazin-1-yl)-ethanone], the Ki turned out to be 0.006 µM.

For `CN(C)C(=O)Cn1cc(C(=O)N2CCC(c3ccccc3C(F)(F)F)CC2)c2ccc(Cl)cc21` [Example 102, 2-{6-Chloro-3-[4-(2-trifluoromethyl-phenyl)-piperidine-1-carbonyl]-indol-1-yl}-N,N-dimethyl-acetamide], the Ki worked out at 0.007 µM.

For `CNC(=O)Cn1cc(C(=O)N2CCC(c3ccccc3OC)CC2)c2ccc(Cl)cc21` [Example 106, 2-{6-Chloro-3-[4-(2-methoxy-phenyl)-piperidine-1-carbonyl]-indol-1-yl}-N-methyl-acetamide], the Ki was 0.005 µM.

Turning to `CNCCn1cc(C(=O)N2CCC(c3cccc4c3OCC4)CC2)c2ccc(Cl)cc21` [Example 107, [6-Chloro-1-(2-methylamino-ethyl)-1H-indol-3-yl]-[4-(2,3-dihydro-benzofuran-7-yl)-piperidin-1-yl]-methanone], the Ki worked out at 0.012 µM.

As to `COc1ccccc1C1CCN(C(=O)c2cn(CCN(C)C)c3cc(Cl)ccc23)CC1` [Example 108, [6-Chloro-1-(2-dimethylamino-ethyl)-1H-indol-3-yl]-[4-(2-methoxy-phenyl)-piperidin-1-yl]-methanone], the Ki came out at 0.008 µM.

On to `CNC(=O)Cn1cc(C(=O)N2CCC(c3ccccc3F)CC2)c2ccc(Cl)cc21` [Example 111, 2-{6-Chloro-3-[4-(2-fluoro-phenyl)-piperidine-1-carbonyl]-indol-1-yl}-N-methyl-acetamide], for which the Ki is 0.007 µM.

As for `CN(C)C(=O)Cn1cc(C(=O)N2CCC(c3ccccc3F)CC2)c2ccc(Cl)cc21` [Example 114, 2-{6-Chloro-3-[4-(2-fluoro-phenyl)-piperidine-1-carbonyl]-indol-1-yl}-N,N-dimethyl-acetamide], the Ki stood at 0.003 µM.

In the case of `CN(C)CCn1cc(C(=O)N2CCC(c3ccccc3F)CC2)c2ccc(Cl)cc21` [Example 115, [6-Chloro-1-(2-dimethylamino-ethyl)-1H-indol-3-yl]-[4-(2-fluoro-phenyl)-piperidin-1-yl]-methanone], the Ki stood at 0.011 µM.

On to `CN1CCN(C(=O)Cn2cc(C(=O)N3CCC(c4ccccc4F)CC3)c3ccc(Cl)cc32)CC1` [Example 117, 2-{6-Chloro-3-[4-(2-fluoro-phenyl)-piperidine-1-carbonyl]-indol-1-yl}-1-(4-methyl-piperazin-1-yl)-ethanone], for which the Ki amounted to 0.006 µM.

Take `O=C(Cn1cc(C(=O)N2CCC(c3ccccc3F)CC2)c2ccc(Cl)cc21)N1CCNCC1` [Example 118, 2-{6-Chloro-3-[4-(2-fluoro-phenyl)-piperidine-1-carbonyl]-indol-1-yl}-1-piperazin-1-yl-ethanone hydrochloride]: the Ki turned out to be 0.012 µM.

On to `COc1ccccc1N1CCN(C(=O)c2cn(CC(=O)N(C)C)c3cc(Cl)ccc23)CC1` [Example 151, 2-{6-Chloro-3-[4-(2-methoxy-phenyl)-piperazine-1-carbonyl]-indol-1-yl}-N,N-dimethyl-acetamide], for which the Ki amounted to 0.014 µM.

For `CCOc1ccccc1N1CCN(C(=O)c2cn(CC(=O)N(C)C)c3cc(Cl)ccc23)CC1` [Example 152, 2-{6-Chloro-3-[4-(2-ethoxy-phenyl)-piperazine-1-carbonyl]-indol-1-yl}-N,N-dimethyl-acetamide], the Ki amounted to 0.014 µM.

For `CNC(=O)Cn1cc(C(=O)N2CCN(c3ccccc3OC)CC2)c2ccc(Cl)cc21` [Example 162, 2-{6-Chloro-3-[4-(2-methoxy-phenyl)-piperazine-1-carbonyl]-indol-1-yl}-N-methyl-acetamide], the Ki is 0.027 µM.

As to `COc1ccccc1N1CCN(C(=O)c2cn(CCN(C)C)c3cc(Cl)ccc23)CC1` [Example 163, [6-Chloro-1-(2-dimethylamino-ethyl)-1H-indol-3-yl]-[4-(2-methoxy-phenyl)-piperazin-1-yl]-methanone], the Ki is 0.022 µM.

Take `CN(C)CCn1cc(C(=O)N2CCN(c3ccccc3F)CC2)c2ccc(Cl)cc21` [Example 171, [6-Chloro-1-(2-dimethylamino-ethyl)-1H-indol-3-yl]-[4-(2-fluoro-phenyl)-piperazin-1-yl]-methanone]: the Ki came to 0.007 µM.

Consider `CN1CCN(C(=O)Cn2cc(C(=O)N3CCN(c4ccccc4F)CC3)c3ccc(Cl)cc32)CC1` [Example 172, 2-{6-Chloro-3-[4-(2-fluoro-phenyl)-piperazine-1-carbonyl]-indol-1-yl}-1-(4-methyl-piperazin-1-yl)-ethanone], for which the Ki was 0.01 µM.

On to `CN(C)C(=O)Cn1cc(C(=O)N2CCN(c3ccccc3F)CC2)c2ccc(Cl)cc21` [Example 174, 2-{6-Chloro-3-[4-(2-fluoro-phenyl)-piperazine-1-carbonyl]-indol-1-yl}-N,N-dimethyl-acetamide], for which the Ki worked out at 0.003 µM.

Consider `NC(=O)Cn1cc(C(=O)N2CCN(c3ccccc3F)CC2)c2ccc(Cl)cc21` [Example 175, 2-{6-Chloro-3-[4-(2-fluoro-phenyl)-piperazine-1-carbonyl]-indol-1-yl}-acetamide], for which the Ki amounted to 0.032 µM.

For the molecule `O=C(Cn1cc(C(=O)N2CCN(c3ccccc3F)CC2)c2ccc(Cl)cc21)N1CCNCC1` [Example 177, 2-{6-Chloro-3-[4-(2-fluoro-phenyl)-piperazine-1-carbonyl]-indol-1-yl}-1-piperazin-1-yl-ethanone], the Ki was 0.008 µM.

Consider `CNC(=O)Cn1cc(C(=O)N2CCN(c3ccc(F)cc3F)CC2)c2ccc(Cl)cc21` [Example 190, 2-{6-Chloro-3-[4-(2,4-difluoro-phenyl)-piperazine-1-carbonyl]-indol-1-yl}-N-methyl-acetamide], for which the Ki was 0.019 µM.

In the case of `CNC(=O)Cn1cc(C(=O)N2CCN(c3ncccc3C(F)(F)F)CC2)c2ccc(Cl)cc21` [Example 196, 2-{6-Chloro-3-[4-(3-trifluoromethyl-pyridin-2-yl)-piperazine-1-carbonyl]-indol-1-yl}-N-methyl-acetamide], the Ki came out at 0.026 µM.

`C[C@H](N)Cn1cc(C(=O)N2CCN(c3ccccc3F)CC2)c2ccc(Cl)cc21` [Example 198, [1-((S)-2-Amino-propyl)-6-chloro-1H-indol-3-yl]-[4-(2-fluoro-phenyl)-piperazin-1-yl]-methanone]: the Ki was determined as 0.02 µM.
